Where a name gives a salt, the structure may show the parent alone.
`Cc1nc(N2CC=CCC2)c2[nH]c(-c3ccccc3)cc2n1` (as salt: hydrochloride) [Example 65, 2-Methyl-6-phenyl-4-(1,2,3,6-tetrahydropyridinyl)pyrrolo[3,2-d]pyrimidine Hydrochloride] showed a melting point of 278 to 279 °C. For `Cc1nc(N2CCOCC2)c2[nH]c(-c3ccc(F)c(F)c3)cc2n1` (as salt: hydrochloride) [Example 141, 4-[6-(3,4-Difluorophenyl)-2-methylpyrrolo[2,3-e]pyrimidin-4-yl]morpholine Hydrochloride], the melting point was greater than 280 °C. Work on `Cc1nc(N2[C@H](C)CCC[C@@H]2C)c2[nH]c(-c3ccccc3)cc2n1` (as salt: hydrochloride) [Example 185, 4-((6S, 2R)-2,6-Dimethyl)-2-methyl-6-phenylpyrrolo[3,2-d]pyrimidine Hydrochloride] yielded a melting point greater than 270 °C. `c1ccc(-c2cc3nc(N4CCCCC4)nc(N4CCCCC4)c3[nH]2)cc1` (as salt: hydrochloride) [Example 208, 6-Phenyl-2,4-dipiperidylpyrrolo[3,2-d]pyrimidine Hydrochloride] gave a melting point greater than 272 °C. Work on `Cc1nc(N2CCCCC2)c2[nH]c(-c3ccccc3)c(Br)c2n1` (as salt: hydrochloride) [Example 211, 7-Bromo-2-methyl-6-phenyl-4-piperidylpyrrolo[3,2-d]pyrimidine Hydrochloride] yielded a melting point of 239 to 240 °C. `Cc1nc(N2CCCCC2)c2[nH]c(-c3ccc(-c4ccccc4)cc3)cc2n1.Cl` (hydrate or solvate) showed a melting point greater than 280 °C. Molecule `Cc1nc(N2CCN(c3ccccc3)CC2)c2[nH]c(-c3ccccc3)cc2n1.Cl` (hydrate or solvate) has a melting point of 232 to 234.5 °C. Molecule `Cc1nc(N2CCCCC2)c2[nH]c(-c3c(F)cccc3F)cc2n1.Cl` (hydrate or solvate) has a melting point greater than 280 °C. In the case of `Cc1nc(N2CCCCC2)c2[nH]c(-c3cc(F)ccc3F)cc2n1.Cl` (hydrate or solvate), the melting point is reported as 279 to 281 °C. Molecule `Cc1nc(N2CCCCC2)c2[nH]c(-c3ccc(Cl)c(Cl)c3Cl)cc2n1.Cl` (hydrate or solvate) has a melting point of 264 to 266 °C. Work on `Cc1nc(N2CCCCC2)c2[nH]c(-c3ccccc3Cl)cc2n1.Cl` (hydrate or solvate) yielded a melting point of 240 to 241.5 °C. In the case of `Cc1nc(N2CCCCC2)c2[nH]c(-c3ccccc3C(F)(F)F)cc2n1.Cl` (hydrate or solvate), the melting point is reported as greater than 280 °C. Work on `Cc1nc(N2CCCCC2)c2[nH]c(-c3cc(F)cc(F)c3)cc2n1.Cl` (hydrate or solvate) yielded a melting point greater than 280 °C. For `Cc1nc(N2CCCCC2)c2[nH]c(-c3ccc(O)c(F)c3)cc2n1.Cl` (hydrate or solvate), the melting point was greater than 280 °C. Work on `Cc1nc(N2CCCCC2)c2[nH]c(-c3ccc4c(c3)CCCC4)cc2n1.Cl` (hydrate or solvate) yielded a melting point of 175 to 177 °C. For `Cc1nc(N2CCCCC2)c2[nH]c(-c3cnn(-c4ccccc4)c3C)cc2n1.Cl` (hydrate or solvate), the melting point was greater than 280 °C. In the case of `Cc1nc(N2CCCCC2)c2[nH]c(-c3sc(C)nc3C)cc2n1.Cl` (hydrate or solvate), the melting point is reported as 272 to 273.5 °C. Work on `Cc1nc(N2CCCCC2)c2[nH]c(-c3ccc(Cl)c(Cl)c3)c(C)c2n1.Cl` (hydrate or solvate) yielded a melting point greater than 280 °C. Work on `Cc1nc(N2CCCCC2)c2[nH]c(-c3cc(F)cc(F)c3)c(C)c2n1.Cl` (hydrate or solvate) yielded a melting point of 242 to 245 °C. With `COc1cccc(-c2cc3nc(C)nc(N4CCCCC4)c3[nH]2)c1.Cl` (hydrate or solvate) the melting point was 241 to 243 °C. In the case of `Cc1nc(N2CCCCC2)c2[nH]c(-c3cccc(O)c3)cc2n1.Cl` (hydrate or solvate), the melting point is reported as greater than 280 °C. `CCc1c(-c2ccccc2)[nH]c2c(N3CCCCC3)nc(C)nc12.Cl` (hydrate or solvate) showed a melting point of 261 to 263 °C. With `Cc1nc(N2CCCCC2)c2[nH]c(-c3ccc(-c4ccc(F)c(Cl)c4)o3)cc2n1.Cl` (hydrate or solvate) the melting point was greater than 280 °C. `COc1ccccc1-c1cc2nc(C)nc(N3CCCCC3)c2[nH]1.Cl` (hydrate or solvate) gave a melting point of 261 to 263 °C. With `Cc1nc(N2CCCCC2C)c2[nH]c(-c3ccc(F)cc3)cc2n1.Cl` (stereo not shown) (hydrate or solvate) the melting point was 274 to 276 °C. In the case of `Cc1nc(N2CCCCC2)c2[nH]c(-c3ccc(Cl)cc3)c(N3CCCC3)c2n1.Cl` (hydrate or solvate), the melting point is reported as greater than 280 °C. `Cc1nc(N2CCCCC2)c2[nH]c(-c3sc4ccccc4c3C)cc2n1.Cl` (hydrate or solvate) gave a melting point greater than 280 °C. Work on `Cc1nc(N2CCCCC2)c2[nH]c(CS(=O)(=O)c3ccc(Cl)cc3)cc2n1.Cl` (hydrate or solvate) yielded a melting point of 199 to 201 °C. In the case of `COc1ccc(-c2c(C)[nH]c3c(N4CCCCC4)nc(C)nc23)cc1.Cl` (hydrate or solvate), the melting point is reported as 170 °C (dec.). In the case of `Cc1nc(N2CCCCC2)c2[nH]c(-c3cccnc3)cc2n1.Cl` (hydrate or solvate), the melting point is reported as greater than 280 °C. Work on `Cc1nc(N2CCCCC2)c2[nH]c(-c3cc4ccccc4s3)cc2n1.Cl` (hydrate or solvate) yielded a melting point greater than 280 °C. With `Cc1ccc2sc(-c3cc4nc(C)nc(N5CCCCC5)c4[nH]3)c(C)c2c1.Cl` (hydrate or solvate) the melting point was greater than 280 °C. `COc1cccc2cc(-c3cc4nc(C)nc(N5CCCCC5)c4[nH]3)oc12.Cl` (hydrate or solvate) showed a melting point greater than 280 °C. With `Cc1nc(N2CCCCC2)c2[nH]c(C)c(Oc3ccccc3)c2n1.Cl` (hydrate or solvate) the melting point was greater than 280 °C. With `Cc1nc(N2CCCCC2)c2[nH]c(C)c(Cc3ccccc3)c2n1.Cl` (hydrate or solvate) the melting point was > 240 °C (dec.). `Cc1nc(N2CCCCC2)c2[nH]c(-c3ccc4c(c3)OCO4)c(C)c2n1.Cl` (hydrate or solvate) gave a melting point of 268 to 269 °C. For `Cc1nc2c3c(cc(-c4ccccc4)n3CC3CCCCN23)n1.Cl` (stereo not shown) (hydrate or solvate), the melting point was greater than 280 °C. With `Cc1nc(N2CCN(S(=O)(=O)c3cccc4ccccc34)CC2)c2[nH]c(-c3ccccc3)cc2n1.Cl` (hydrate or solvate) the melting point was 195 °C (dec.). With `CSc1nc(N2CCCCC2)c2[nH]c(-c3ccccc3)cc2n1.Cl` (hydrate or solvate) the melting point was 281 to 283 °C (dec.). For `Cc1nc(N2CCC2)c2[nH]c(-c3ccccc3)cc2n1.Cl` (hydrate or solvate), the melting point was > 300 °C (dec.). For `Cl.c1ccc(-c2cc3ncnc(N4CCCCC4)c3[nH]2)nc1` (hydrate or solvate), the melting point was 279 to 280 °C. With `Cc1nc(N2CCCCC2)c2[nH]c(-c3cnccn3)cc2n1.Cl` (hydrate or solvate) the melting point was 280 to 283.5 °C. For `Cl.c1cnc(-c2cc3ncnc(N4CCCCC4)c3[nH]2)cn1` (hydrate or solvate), the melting point was greater than 280 °C. For `Cl.c1ccc2oc(-c3cc4ncnc(N5CCCCC5)c4[nH]3)cc2c1` (hydrate or solvate), the melting point was 278.5 to 281 °C. `Cl.c1ccc(-c2[nH]c3c(N4CCCCC4)ncnc3c2-c2ccccc2)cc1` (hydrate or solvate) gave a melting point of 266 to 268.5 °C. `Cc1nc(N2CCCCC2)c2[nH]c(-c3ccccc3)c(-c3ccccc3)c2n1.Cl` (hydrate or solvate) showed a melting point of 169 to 171 °C. With `Cl.FC(F)(F)c1nc(N2CCCCC2)c2[nH]c(-c3ccccc3)cc2n1` (hydrate or solvate) the melting point was 235.1 to 237.5 °C (dec.). Work on `Cc1nc(N2CCCCC2)c2[nH]c(-c3cc(C)sc3C)cc2n1.Cl` (hydrate or solvate) yielded a melting point of 240 to 241.5 °C. For `CCc1nc(N2CCCCC2)c2[nH]c(-c3ccccc3)cc2n1.Cl` (hydrate or solvate) [Example 68c, 2-Ethyl-6-phenyl-4-piperidylpyrrolo[3,2-d]pyrimidine Hydrochloride Monohydrate], the melting point was 286 to 288 °C (dec.). In the case of `Cc1nc(N2CCCCC2)c2[nH]c(-c3cccc(Cl)c3)cc2n1.Cl` (hydrate or solvate) [Example 70e, 6-(3-Chlorophenyl)-2-methyl-4-piperidylpyrrolo[3,2-d]pyrimidine Hydrochloride Monohydrate], the melting point is reported as 244.5 to 246 °C (dec.). In the case of `COc1ccc(-c2cc3nc(C)nc(N4CCCCC4)c3[nH]2)cc1.Cl` (hydrate or solvate) [Example 71e, 4-Methoxy-1-(2-methyl-4-piperidylpyrrolo[4,5-d]pyrimidin-6-yl)benzene Hydrochloride Monohydrate], the melting point is reported as 267.5 to 268 °C (dec.). For `Cc1nc(N2CCCCC2)c2[nH]c(-c3ccc(O)cc3)cc2n1.Cl` (hydrate or solvate) [Example 72, 2-methyl-4-piperidyl-6-(4-hydroxyphenyl)pyrrolo[3,2-d]pyrimidine], the melting point was > 300 °C (dec.). Molecule `Cc1nc(N2CCCCC2)c2[nH]c(-c3ccccn3)cc2n1.Cl` (hydrate or solvate) [Example 77, 2-Methyl-4-piperidyl-6-(2-pyridyl)pyrrolo[3,2-d]pyrimidine Hydrochloride Hydrate] has a melting point greater than 280 °C. Work on `Cc1nc(N2CCCCC2)c2[nH]c(C3CCCCC3)cc2n1.Cl` (hydrate or solvate) [Example 80d, 6-Cyclohexyl-2-methyl-4-piperidylpyrrolo[3,2-d]pyrimidine Hydrochloride Hydrate] yielded a melting point greater than 280 °C. For `Cc1nc(N2CCCCC2)c2[nH]c(C34C[C@H]5C[C@@H](C3)C[C@@H](C4)C5)cc2n1.Cl` (hydrate or solvate) [Example 81d, 6-Adamantanyl-2-methyl-4-piperidylpyrrolo[3,2-d]pyrimidine Hydrochloride Monohydrate], the melting point was greater than 280 °C. Work on `Cc1nc(N2CCCCC2)c2[nH]c(-c3cc4ccccc4o3)cc2n1.Cl` (hydrate or solvate) [Example 85, 2-(2-Methyl-4-piperidylpyrrolo[4,5-d]pyrimidin-6-yl)benzo[b]furan Hydrochloride Monohydrate] yielded a melting point greater than 280 °C. For `Cc1nc(N2CCCCC2)c2[nH]c(-c3ccccc3)c(C)c2n1.Cl` (hydrate or solvate) [Example 90, 2,7-Dimethyl-6-phenyl-4-piperidylpyrrolo[3,2-d]pyrimidine Hydrochloride Monohydrate], the melting point was greater than 280 °C. `Cc1nc(N2CCCCC2)c2[nH]c(C(C)(C)C)cc2n1.Cl` (hydrate or solvate) [Example 97, 6-(tert-Butyl)-2-methyl-4-piperidylpyrrolo[3,2-d]pyrimidine Hydrochloride Hydrate] showed a melting point of 256 to 258 °C.

From US6583154B1, “Compounds and methods which modulate feeding behavior and related diseases” (Amgen Inc., priority 1998, dated 2003)
